The text below walks through data of patent publication US7879878B2, “Quinolone derivative or salt thereof” (Astellas Pharma Inc., priority 2003, dated 2011).

Assay [1] concerns the target T1, human P2Y12 (Homo sapiens, UniProt Q9H244).
T1 construct: expressed in transfected cells; membrane fraction
Description: Substitution test of the binding between human P2Y12 and 2-methylthio-ADP (2-MeS-ADP). The conditions noted are these: compound at 30 nM final concentration; [3H]-2-MeS-ADP; membrane fraction of C6-15 cells expressing human P2Y12. The procedure: (2) Substitution Test of the Binding Between Human P2Y12 and 2-methylthio-ADP (2-MeS-ADP)
After C6-15 cells were inoculated on a DMEM culture medium to 1×10^6 cells in a 10-cm petri dish for culturing for one day, where 8 μg of a plasmid pEF-BOS-dhfr-human P2Y12 and 0.8 μg of pEF-BOS-neo (Nucleic Acid Res., 18, 5322, 1990) were genetically introduced with a transfection reagent (LipofectAMINE 2000; manufactured by GIBCO BRL).
24 hours after the gene introduction procedure described above, the cells with the gene introduced therein were recovered and suspended in a DMEM culture medium containing 0.6 mg/ml G418 (manufactured by GIBCO BRL), to prepare serial dilutions, which were inoculated on a 10-cm petri dish. Colonies appearing 2 weeks later were individually obtained and defined as C6-15 cell expressing the protein P2Y12, for use in the following experiment (WO 02/36631, Mol. Pharmacol., 60, 432, 2001).
The C6-15 cell expressing the protein P2Y12 was cultured and recovered. […]
1.5 μl of an active ingredient or compound of the invention and 50 μl of 0.75 nM [^3H]-2-MeS-ADP (80 Ci/mmol; manufactured by Amersham Pharmacia Biotech) were added to 100 μl of the P2Y12 protein-expressing C6-15 cell membrane fraction (100 μg/ml) thus prepared, for incubation in 50 mM Tris-HCl, pH 7.4 containing 100 mM NaCl and 50 mM MgCl2, at ambient temperature for one hour. […] Adding a microscintillator onto the glass filter, the radioactivity was assayed with a liquid scintillation counter. At the test, additionally, the radioactivity levels of such cell cultures with no addition of the compound and with addition of 1.5 μl of 100 μM 2-MeS-ADP were assayed as total binding and non-specific binding, respectively. Defining the total binding and the non-specific binding at inhibition ratios of 0% and 100%, respectively, the inhibition ratio (%) of an active ingredient or compound in accordance with the invention was calculated.

In assay [2] the test system is Human platelet aggregation. Description: Test for assaying human platelet aggregation-inhibiting activity (ADP-induced aggregation in platelet-enriched plasma). Format: cell-based. Particulars: compound at 10 μM final concentration; human PRP; aggregation induced by ADP; area-under-the curve of platelet aggregation as indicator; read-out: % inhibition (Human platelet aggregation-inhibiting action). How it is done:
(1) Test for Assaying Human Platelet Aggregation-Inhibiting Activity
Blood was withdrawn from healthy human volunteers (adult males), in the presence of a 1/10th volume of sodium citrate, and centrifuged to obtain supernatant platelet-enriched plasma (PRP). The platelet count in PRP was determined with an automatic blood cell counter (MEK-6258; manufactured by NIHON KOHDEN CORPORATION). Then, the platelet count in PRP was adjusted to 3×10^8/ml with platelet-poor plasma. ADP as a platelet aggregation-inducing agent was a product of MCMEDICAL, Inc. Platelet aggregation was measured using an aggregometer (MCM Hematracer 212; MCMEDICAL, Inc.). Specifically, 80 μl of PRP and 10 μl of a solution of an active ingredient or compound of the invention or a solvent (10% DMSO) were incubated together at 37° C. for one minute, to which 10 μl of ADP (50 μM) was added to induce platelet aggregation. Then, the change of the transmitting light was recorded over 5 minutes. Using the area-under-the curve of platelet aggregation as an indicator, the inhibition ratio was calculated.

T1 sequence (Q9H244 whole entry): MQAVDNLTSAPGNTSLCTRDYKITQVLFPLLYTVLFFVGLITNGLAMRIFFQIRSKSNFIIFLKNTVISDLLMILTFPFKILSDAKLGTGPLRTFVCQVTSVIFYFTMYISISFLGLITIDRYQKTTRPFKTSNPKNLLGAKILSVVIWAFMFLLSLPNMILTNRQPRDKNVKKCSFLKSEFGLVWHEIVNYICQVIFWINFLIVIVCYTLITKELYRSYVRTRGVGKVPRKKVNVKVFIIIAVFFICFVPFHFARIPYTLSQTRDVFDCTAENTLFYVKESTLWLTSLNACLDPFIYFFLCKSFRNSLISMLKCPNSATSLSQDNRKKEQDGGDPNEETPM

For `CCOP(=O)(O)CCNC(=O)c1cn(C(CO)CO)c2cc(NC3CCCCC3)c(F)cc2c1=O` [Example 22, ethyl{2-[({7-(cyclohexylamino)-6-fluoro-4-oxo-1-[2-hydroxy-1-(hydroxymethyl)ethyl]-4-oxo-1,4-dihydroquinolin-3-yl}carbonyl)amino]ethyl}phosphonic acid], the “% inhibition (Inhibition activity of the binding between P2Y12 and 2-MeS-ADP)” value in assay [1] is listed as 75%.
Compound `CC1(C)OCC(n2cc(C(=O)NCCP(=O)(O)O)c(=O)c3cc(F)c(NC4CCCCC4)cc32)CO1` [Example 18, [2-({[7-(cyclohexylamino)-1-(2,2-dimethyl-1,3-dioxan-5-yl)-6-fluoro-4-oxo-1,4-dihydroquinolin-3-yl]carbonyl}amino)ethyl]phosphonic acid] had an inhibition at 0.03 µM in assay [1] of 96%. In addition, the inhibition at 10 µM in assay [2] came out at 92%.
Regarding `CCC(CC)n1cc(C(=O)NC(C)(C)C(=O)O)c(=O)c2cc(F)c(NC3CCCCC3)cc21` [Example 28, 2-({[7-(cyclohexylamino)-1-(1-ethylpropyl)-6-fluoro-4-oxo-1,4-dihydroquinolin-3-yl]carbonyl}amino)-2-methylpropionic acid], the inhibition at 0.03 µM in assay [1] was 63%.
